Refractive index data for four compounds are collected here from the NIST ThermoML archive (doi:10.1021/je800404f).

The term refractive index denotes a measure of how strongly the sample bends light.

± gives the expanded uncertainty stated by the source.

The series is described as follows: refractive index (Na D-line) (dimensionless). As to conditions: 295.1 K; 101.33 kPa; Liquid; Standard Abbe refractometry.
Consider `O` [water], for which the refractive index was 1.333 ± 0.0024.

`CCCCCCC(=O)O` [heptanoic acid]: the refractive index was 1.4175 ± 0.0024. As for `CCCCCCCCCO` [nonan-1-ol], the figure is 1.4322 ± 0.0024; as for `CC#N` [acetonitrile], 1.3441 ± 0.0024.
